Reference: paper PMC12595484, “Optimizing multifunctional fluorescent ligands for intracellular labeling” (Proceedings of the National Academy of Sciences of the …, 2025)

System: HEK293T cells expressing msGFP–HaloTag localized to the mitochondrial outer membrane
Assay: HEK293T labeling and fluorescence microscopy
Assay type: cell-based
Description: Plasmid construction for mitochondria imaging and affinity purification. HaloTag, amplified from the pHTC HaloTag CMV-neo Vector (Promega; G7711) and monomeric-superfolder green fluorescent protein (msGFP; lab stock), was fused to the mitochondrial targeting signal from OMP25,8 interspacing flexible GS(GSS)4 linkers between each domain by PCR Splicing by Overlap Extension (SOE). This construct was subcloned into hSynapsin promoter bearing a copy of FUGW.9 FUGW was a gift from David Baltimore (Addgene plasmid # 14883; RRID:
Addgene_14883).10 This construct was designated as pF(UG) hSyn HaloTag-TEV-4×GS-msGFP- […]
HEK293T cell culture. HEK293T cells (ATCC) were passaged before 80% confluency by trypsinization (Corning; 25-053-CI) and trituration. The cell suspension was then plated on glass coverslips (Warner instruments; 64-0734, CS-18R17) coated with poly-D-lysine (Thermofisher; ICN10269491) and cultured in Dulbecco's modified Eagle medium (DMEM; ThermoFisher; 11965-118) supplemented with 10% (v/v) fetal bovine serum (FBS, Atlanta Biological) and penicillin/streptomycin (pen/strep; ThermoFisher; MT-30-001-CI) at 37 °C in a humidified 5% (v/v) CO2 environment following ATCC guidelines. These HEK293T cells were tested for mycoplasma contamination using the Universal Mycoplasma Detection Kit (ATCC; 30-1012K) and validated using Short Tandem Repeat profiling by ATCC (ATCC; 135-XV) within the previous year or were from newly purchased stock from ATCC. HEK293T cells were transfected with pF(UG) hSyn HaloTag-TEV-4×GS-msGFP-mito using a standard calcium phosphate protocol11 or using lipofectamine LTX reagent (ThermoFisher; 15338100). We note that this plasmid is optimized for lentivirus-mediated expression, but robust expression in HEK293T cells […]
HEK293T labeling and fluorescence microscopy. One day after HEK293T cell transfection, the GFP fluorescence signal was confirmed, and HaloTag ligand labeling experiments were conducted. For pulse–chase experiments, HEK293T cells were incubated with biotin-HaloTag ligand (17HTL; #G8281, Promega) at either 100 nM or 10 μM for 1 hour at 37 °C and chased with 100 nM of JF549-HaloTag ligand (2HTL). We also evaluated a commercial biotin-HaloTag ligand […]
indicated in the product information12 and from a previous publication.13 For labeling with biotin-JF-HaloTag ligands 13HTL–16HTL, cells were incubated with 100 nM or 1 µM ligand for 0.5–2 h at 37 °C. For imaging, the coverslips containing HEK293T cells were fixed with 4% (w/v) paraformaldehyde in PBS at 37 °C for 10 min, washed with PBS (3×), and mounted on glass slides with ProLong Glass Antifade Mountant with NucBlueTM Stain (ThermoFisher; P36981). These cells were imaged using a Zeiss LSM 880 with Airyscan and a plan-apochromatic 63×/1.40 oil objective in Fast Airyscan mode. The same image acquisition settings were used for each trial and condition. Images were then processed with automatic Airyscan deconvolution settings. For quantitation of labeling intensity, ROIs were drawn surrounding individual HEK cells, and the average fluorescence ratio (JF/msGFP) from multiple cells in each condition was measured; no background subtraction was necessary. […]
JF608-HaloTag ligand (14HTL), biotin-JF646-HaloTag ligand (15HTL), or biotin-JF635-HaloTag ligand (16HTL) for 1 h at 37 °C, washed 3× with dye-free media, then fixed with 4% paraformaldehyde in 0.1 M phosphate buffer for 15 min at 37 °C. Fixed cells were then washed 3× in 1× PBS and incubated with Hoechst 33342 (5µg/mL) for 15 min at 22 °C as a nuclear counterstain. Airyscan imaging was performed on a Zeiss LSM 980 with Airyscan 2 confocal microscope using a Plan APO 63×/1.4 oil DIC M27 objective. The same acquisition settings were used for all constructs labeled with 13HTL–16HTL. These single plane images were bulk processed in ZEN Blue (Zeiss) with automatic Airyscan settings.
Dye loading kinetics. Live U2OS.H2B.HaloTag stable cells were labeled over a time course of […]

Structure (SMILES) | Pearson's correlation coefficient between rhodamine and GFP signals | intracellular labeling by live-cell imaging
C[Si]1(C)c2cc(N3CC(F)C3)ccc2C2(OC(=O)c3ccc(C(=O)NCCOCCOCCCCCCCl)cc32)c2ccc(N3CC(F)C3)cc21 [6HTL, JF635–HaloTag ligand, reference compound] | 0.92 | –
C[Si]1(C)C2=CC(=[N+]3CC(C(=O)NCCOCCOCCNC(=O)CCCC[C@@H]4SC[C@@H]5NC(=O)N[C@@H]54)C3)C=CC2=C(c2cc(C(=O)NCCOCCOCCCCCCCl)ccc2C(=O)[O-])c2ccc(N3CCC3)cc21 (stereo partly drawn) [15HTL, biotin–JF646–HaloTag ligand] | 0.89 | robust labeling and colocalization with mitochondrial-localized GFP
O=C(CCCCC1SCC2NC(=O)NC21)NCCOCCOCCNC(=O)C1C[N+](=c2ccc3c(-c4cc(C(=O)NCCOCCOCCCCCCCl)ccc4C(=O)[O-])c4ccc(N5CCC5)cc4oc-3c2)C1 (stereo not drawn) [13HTL, biotin–JF549–HaloTag ligand] | – | low intracellular signal
C[Si]1(C)C2=CC(=[N+]3CC(F)(C(=O)NCCOCCOCCNC(=O)CCCC[C@@H]4SC[C@@H]5NC(=O)N[C@@H]54)C3)C=CC2=C(c2cc(C(=O)NCCOCCOCCCCCCCl)ccc2C(=O)[O-])c2ccc(N3CC(F)C3)cc21 (stereo partly drawn) [16HTL, biotin–JF635–HaloTag ligand] | 0.87 | robust labeling and colocalization with mitochondrial-localized GFP
